Test results as given in PubChem BioAssay AID248 (DTP/NCI, 2004).
Where “and” joins values, the source holds several entries; their conditions need not be identical. Equal entries are not always repeated. Inconclusive results and toxic doses are left out.

Tested on: L1210 leukemia ip in BDF1 mice, survival T/C
Assay: NCI In Vivo Anticancer Drug Screen. Data for tumor model L1210 Leukemia (intraperitoneal) in B6D2F1 (BDF1) mice
Settings: endpoint: mean survival time, higher = longer survival
Outline: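 Value reflects the ratio of survival in compound-treated mice to survival in vehicle-treated controls, with both groups carrying the same transplanted tumor.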

[1] = dose: 50.0 mg/kg/injection, schedule: Q01DX001 (ip), vehicle: carboxymethylcellulose (CMC)
[2] = dose: 100.0 mg/kg/injection, schedule: Q01DX001 (ip), vehicle: carboxymethylcellulose (CMC)
[3] = dose: 200.0 mg/kg/injection, schedule: Q01DX001 (ip), vehicle: carboxymethylcellulose (CMC)
[4] = dose: 400.0 mg/kg/injection, schedule: Q01DX001 (ip), vehicle: carboxymethylcellulose (CMC)
[5] = dose: 100.0 mg/kg/injection, schedule: Q04DX003 (ip), vehicle: saline with Tween-80
[6] = dose: 25.0 mg/kg/injection, schedule: Q04DX003 (ip), vehicle: saline
[7] = dose: 50.0 mg/kg/injection, schedule: Q04DX003 (ip), vehicle: saline
[8] = dose: 100.0 mg/kg/injection, schedule: Q04DX003 (ip), vehicle: Klucel (hydroxypropylcellulose) (HPC)
[9] = dose: 200.0 mg/kg/injection, schedule: Q04DX003 (ip), vehicle: Klucel (hydroxypropylcellulose) (HPC)
[10] = dose: 400.0 mg/kg/injection, schedule: Q04DX003 (ip), vehicle: Klucel (hydroxypropylcellulose) (HPC)

SMILES: CCNCC(=O)O
- T/C (dose: 100.0 mg/kg/injection, schedule: Q04DX002 (ip), vehicle: saline): 96 % of control
- T/C (dose: 200.0 mg/kg/injection, schedule: Q04DX002 (ip), vehicle: saline): 101 % of control
- T/C (dose: 400.0 mg/kg/injection, schedule: Q04DX002 (ip), vehicle: saline): 104 % of control

SMILES: O=NN(CCCl)C(=O)N[C@@H]1CCC[C@@H](O)C1
- T/C (dose: 13.0 mg/kg/injection, schedule: Q01DX001 (ip), vehicle: saline with Tween-80): 250 % of control
- T/C (dose: 20.0 mg/kg/injection, schedule: Q01DX001 (ip), vehicle: saline with Tween-80): 357 % of control
- T/C (dose: 30.0 mg/kg/injection, schedule: Q01DX001 (ip), vehicle: saline with Tween-80): 420 % of control
- T/C (dose: 44.0 mg/kg/injection, schedule: Q01DX001 (ip), vehicle: saline with Tween-80): 417 % of control

SMILES: Cc1cccc[n+]1C
- T/C [1]: 111 % of control
- T/C (dose: 100.0 mg/kg/injection, schedule: Q01DX001 (ip), vehicle: Klucel (hydroxypropylcellulose) (HPC)): 95 % of control
- T/C [2]: 92 % of control
- T/C (dose: 200.0 mg/kg/injection, schedule: Q01DX001 (ip), vehicle: Klucel (hydroxypropylcellulose) (HPC)): 104 % of control
- T/C [3]: 103 % of control

SMILES: CCCCCCCC/C=N/Nc1nnc(N/N=C/CCCCCCCC)c2ccccc12
- T/C [1]: 108 % of control
- T/C [2]: 114 % of control
- T/C (dose: 177.0 mg/kg/injection, schedule: Q01DX001 (ip), vehicle: carboxymethylcellulose (CMC)): 93 % of control and 111 % of control
- T/C [3]: 114 % of control
- T/C (dose: 266.0 mg/kg/injection, schedule: Q01DX001 (ip), vehicle: carboxymethylcellulose (CMC)): 119 % of control
- T/C [4]: 102 % of control
- T/C (dose: 600.0 mg/kg/injection, schedule: Q01DX001 (ip), vehicle: carboxymethylcellulose (CMC)): 101 % of control

SMILES: CC1C(=O)OC(C)(C)C1(C)C (centres undefined)
- T/C (dose: 25.0 mg/kg/injection, schedule: Q04DX003 (ip), vehicle: saline with Tween-80): 108 % of control
- T/C (dose: 50.0 mg/kg/injection, schedule: Q04DX003 (ip), vehicle: saline with Tween-80): 96 % of control
- T/C [5]: 96 % of control

SMILES: O=C1CCSc2c1ccc1ccccc21
- T/C (dose: 100.0 mg/kg/injection, schedule: Q01DX001 (ip), vehicle: saline): 87 % of control

SMILES: CCOCc1cnc(C)nc1N
- T/C (dose: 100.0 mg/kg/injection, schedule: Q01DX001 (ip), vehicle: saline with Tween-80): 94 % of control
- T/C (dose: 200.0 mg/kg/injection, schedule: Q01DX001 (ip), vehicle: saline with Tween-80): 94 % of control

SMILES: CNC(C)Cc1ccc2c(c1)OCO2 (centres undefined)
- T/C (dose: 12.5 mg/kg/injection, schedule: Q01DX009 (ip), vehicle: saline): 105 % of control
- T/C (dose: 25.0 mg/kg/injection, schedule: Q01DX009 (ip), vehicle: saline): 98 % of control
- T/C [6]: 106 % of control
- T/C (dose: 50.0 mg/kg/injection, schedule: Q01DX009 (ip), vehicle: saline): 100 % of control and 104 % of control
- T/C [7]: 104 % of control
- T/C (dose: 75.0 mg/kg/injection, schedule: Q04DX003 (ip), vehicle: saline): 92 % of control
- T/C (dose: 100.0 mg/kg/injection, schedule: Q04DX003 (ip), vehicle: saline): 98 % of control

SMILES: Cc1cc2ncn(C(=O)Nc3ccccc3)c2cc1C
- T/C [5]: 92 % of control
- T/C (dose: 200.0 mg/kg/injection, schedule: Q04DX003 (ip), vehicle: saline with Tween-80): 87 % of control
- T/C (dose: 400.0 mg/kg/injection, schedule: Q04DX003 (ip), vehicle: saline with Tween-80): 90 % of control

SMILES: CC(=O)Nc1ccnc(=O)[nH]1
- T/C (dose: 75.0 mg/kg/injection, schedule: Q01DX001 (ip), vehicle: saline): 106 % of control
- T/C (dose: 150.0 mg/kg/injection, schedule: Q01DX001 (ip), vehicle: saline): 95 % of control

SMILES: CCCc1ccc2c(c1)CCCC2
- T/C (dose: 100.0 mg/kg/injection, schedule: Q01DX009 (ip), vehicle: Klucel (hydroxypropylcellulose) (HPC)): 94 % of control
- T/C [8]: 94 % of control
- T/C (dose: 200.0 mg/kg/injection, schedule: Q01DX009 (ip), vehicle: Klucel (hydroxypropylcellulose) (HPC)): 90 % of control
- T/C [9]: 93 % of control
- T/C (dose: 400.0 mg/kg/injection, schedule: Q01DX009 (ip), vehicle: Klucel (hydroxypropylcellulose) (HPC)): 97 % of control
- T/C [10]: 94 % of control

SMILES: C=CC(C)C1C(C)C(Cl)CC(Cl)C1OC(=O)c1ccccc1 (centres undefined)
- T/C [1]: 100 % of control
- T/C [2]: 112 % of control
- T/C [3]: 94 % of control
- T/C [4]: 96 % of control

SMILES: O=Cc1ccsc1
- T/C (dose: 100.0 mg/kg/injection, schedule: Q04DX002 (ip), vehicle: saline with Tween-80): 90 % of control
- T/C (dose: 200.0 mg/kg/injection, schedule: Q04DX002 (ip), vehicle: saline with Tween-80): 97 % of control
- T/C (dose: 400.0 mg/kg/injection, schedule: Q04DX002 (ip), vehicle: saline with Tween-80): 101 % of control

SMILES: COc1cccc2c1C(=O)c1c(O)c3c(c(O)c1C2=O)CC(O)(C(C)=O)CC3OC1CC(NC(=O)C(F)(F)F)C(O)C(C)O1 (centres undefined)
- T/C (dose: 0.25 mg/kg/injection, schedule: Q04DX003 (ip), vehicle: water): 96 % of control
- T/C (dose: 0.5 mg/kg/injection, schedule: Q04DX003 (ip), vehicle: water): 95 % of control
- T/C (dose: 1.0 mg/kg/injection, schedule: Q04DX003 (ip), vehicle: water): 106 % of control
- T/C (dose: 2.0 mg/kg/injection, schedule: Q04DX003 (ip), vehicle: water): 111 % of control
- T/C (dose: 4.0 mg/kg/injection, schedule: Q04DX003 (ip), vehicle: water): 98 % of control
- T/C (dose: 8.0 mg/kg/injection, schedule: Q04DX003 (ip), vehicle: water): 90 % of control
- T/C (dose: 14.0 mg/kg/injection, schedule: Q04DX003 (ip), vehicle: water): 107 % of control
- T/C (dose: 16.0 mg/kg/injection, schedule: Q04DX003 (ip), vehicle: water): 101 % of control
- T/C (dose: 21.0 mg/kg/injection, schedule: Q04DX003 (ip), vehicle: water): 113 % of control
- T/C (dose: 25.0 mg/kg/injection, schedule: Q04DX003 (ip), vehicle: water): 110 % of control
- T/C (dose: 32.0 mg/kg/injection, schedule: Q04DX003 (ip), vehicle: water): 110 % of control
- T/C (dose: 50.0 mg/kg/injection, schedule: Q04DX003 (ip), vehicle: water): 107 % of control and 112 % of control
- T/C (dose: 100.0 mg/kg/injection, schedule: Q04DX003 (ip), vehicle: water): 112 % of control

SMILES: O=C(c1ccccc1)c1cn(C2CCCCC2)c(-c2ccccc2)c1NC1CCCCC1
- T/C (dose: 100.0 mg/kg/injection, schedule: Q01DX009 (ip), vehicle: saline with Tween-80): 93 % of control
- T/C (dose: 200.0 mg/kg/injection, schedule: Q01DX009 (ip), vehicle: saline with Tween-80): 93 % of control
- T/C (dose: 400.0 mg/kg/injection, schedule: Q01DX009 (ip), vehicle: saline with Tween-80): 102 % of control

SMILES: Cc1nonc1-c1ccc2c(c1)OCO2
- T/C [8]: 103 % of control
- T/C [9]: 97 % of control
- T/C [10]: 101 % of control

SMILES: Cc1ccc([N+](=O)[O-])cc1P(=O)(O)c1cc([N+](=O)[O-])ccc1C
- T/C (dose: 100.0 mg/kg/injection, schedule: Q01DX001 (ip), vehicle: acetone): 94 % of control
- T/C (dose: 100.0 mg/kg/injection, schedule: Q04DX003 (ip), vehicle: acetone): 103 % of control
- T/C (dose: 200.0 mg/kg/injection, schedule: Q01DX001 (ip), vehicle: acetone): 94 % of control
- T/C (dose: 200.0 mg/kg/injection, schedule: Q04DX003 (ip), vehicle: acetone): 92 % of control
- T/C (dose: 400.0 mg/kg/injection, schedule: Q01DX001 (ip), vehicle: acetone): 93 % of control
- T/C (dose: 400.0 mg/kg/injection, schedule: Q04DX003 (ip), vehicle: acetone): 100 % of control

SMILES: CCCCCCCCCCCCCCOc1ccc(S(=O)(=O)/N=C(\N)NC(N)=NCCCCCCCCCC)cc1
- T/C (dose: 100.0 mg/kg/injection, schedule: Q04DX002 (ip), vehicle: Klucel (hydroxypropylcellulose) (HPC)): 89 % of control
- T/C (dose: 200.0 mg/kg/injection, schedule: Q04DX002 (ip), vehicle: Klucel (hydroxypropylcellulose) (HPC)): 101 % of control
- T/C (dose: 400.0 mg/kg/injection, schedule: Q04DX002 (ip), vehicle: Klucel (hydroxypropylcellulose) (HPC)): 89 % of control

SMILES: CC1(C)N=C(N)N=C(N)N1c1cccc(CCC(=O)Nc2ccc(S(=O)(=O)F)cc2)c1
- T/C (dose: 0.8 mg/kg/injection, schedule: Q01DX009 (ip), vehicle: saline): 103 % of control
- T/C (dose: 4.0 mg/kg/injection, schedule: Q01DX009 (ip), vehicle: saline): 101 % of control
- T/C (dose: 20.0 mg/kg/injection, schedule: Q01DX009 (ip), vehicle: saline): 103 % of control
- T/C (dose: 100.0 mg/kg/injection, schedule: Q01DX009 (ip), vehicle: saline): 112 % of control

SMILES: CC1CC([P+](c2ccccc2)(c2ccccc2)c2ccccc2)=NN1 (centres undefined)
- T/C [6]: 120 % of control
- T/C [7]: 113 % of control
